Values of other authors, collected in patent publication US20230159622A1, “COLLAGEN MIMICS” (Wisconsin Alumni Research Foundation, priority 2006, published 2023).
Marks after values point to notes of the source that are not given here.

Conditions: based on the extrapolation of data from solutions containing trimethylamine N-oxide; literature reference

## (Pro-Pro-Gly)7
  Tm (±1° C.) of triple helix, based on extrapolation: −6^a ° C.
